Tested on: P12-Ichikawa
Experiment: cell viability relative to DMSO control; higher = less cytotoxic
Details: 48 h
Procedure, shortened: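 Three leukemia lines were tested: NOMO1 and SEM at 500 cells/well and P12-Ichikawa at 1000 cells/well. Each was adapted for at least four passages in each medium and seeded in 5 μl in 1536-well plates, and library compounds in DMSO were pin-dosed from 47 μM to 0.79 nM in 11 threefold steps. After 48 h at 37°C, CellTiter-Glo One luminescence was read. Viability is a percentage relative to DMSO wells on each plate, with cell-free wells as background.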

[1] = HPLM + 10% dialyzed FBS, 0.000781 µM
[2] = HPLM + 10% dialyzed FBS, 0.00234 µM
[3] = HPLM + 10% dialyzed FBS, 0.00702 µM
[4] = HPLM + 10% dialyzed FBS, 0.0211 µM
[5] = HPLM + 10% dialyzed FBS, 0.0632 µM
[6] = HPLM + 10% dialyzed FBS, 0.19 µM
[7] = HPLM + 10% dialyzed FBS, 0.569 µM
[8] = HPLM + 10% dialyzed FBS, 1.71 µM
[9] = HPLM + 10% dialyzed FBS, 5.12 µM
[10] = HPLM + 10% dialyzed FBS, 15.4 µM
[11] = HPLM + 10% dialyzed FBS, 46.1 µM
[12] = RPMI 5 mM glucose + 10% FBS, 0.000781 µM
[13] = RPMI 5 mM glucose + 10% FBS, 0.00234 µM
[14] = RPMI 5 mM glucose + 10% FBS, 0.00702 µM
[15] = RPMI 5 mM glucose + 10% FBS, 0.0211 µM
[16] = RPMI 5 mM glucose + 10% FBS, 0.0632 µM
[17] = RPMI 5 mM glucose + 10% FBS, 0.19 µM
[18] = RPMI 5 mM glucose + 10% FBS, 0.569 µM
[19] = RPMI 5 mM glucose + 10% FBS, 1.71 µM
[20] = RPMI 5 mM glucose + 10% FBS, 5.12 µM
[21] = RPMI 5 mM glucose + 10% FBS, 15.4 µM
[22] = RPMI 5 mM glucose + 10% FBS, 46.1 µM
[23] = RPMI 5 mM glucose + 10% dialyzed FBS, 0.000781 µM
[24] = RPMI 5 mM glucose + 10% dialyzed FBS, 0.00234 µM
[25] = RPMI 5 mM glucose + 10% dialyzed FBS, 0.00702 µM
[26] = RPMI 5 mM glucose + 10% dialyzed FBS, 0.0211 µM
[27] = RPMI 5 mM glucose + 10% dialyzed FBS, 0.0632 µM
[28] = RPMI 5 mM glucose + 10% dialyzed FBS, 0.19 µM
[29] = RPMI 5 mM glucose + 10% dialyzed FBS, 0.569 µM
[30] = RPMI 5 mM glucose + 10% dialyzed FBS, 1.71 µM
[31] = RPMI 5 mM glucose + 10% dialyzed FBS, 5.12 µM
[32] = RPMI 5 mM glucose + 10% dialyzed FBS, 15.4 µM
[33] = RPMI 5 mM glucose + 10% dialyzed FBS, 46.1 µM

Row | Compound | cell viability [1] | cell viability [2] | cell viability [3] | cell viability [4] | cell viability [5] | cell viability [6] | cell viability [7] | cell viability [8] | cell viability [9] | cell viability [10] | cell viability [11] | cell viability [12] | cell viability [13] | cell viability [14] | cell viability [15] | cell viability [16] | cell viability [17] | cell viability [18] | cell viability [19] | cell viability [20] | cell viability [21] | cell viability [22] | cell viability [23] | cell viability [24] | cell viability [25] | cell viability [26] | cell viability [27] | cell viability [28] | cell viability [29] | cell viability [30] | cell viability [31] | cell viability [32] | cell viability [33]
1 | O=C1N\N=C(\C[C@@H]2CCN(C2)C(=O)C3CC3)N1C4=CC=C(C=C4)C5=CC=C6OC=CC6=C5 | 79.6% | 82% | 83.2% | 86.1% | 91.9% | 81.5% | 81% | 88.7% | 83.7% | 83.2% | 80.3% | 76.3% | 77% | 77.1% | 78.3% | 87.6% | 75.5% | 73.6% | 78.8% | 82.1% | 78.2% | 83.9% | 83.3% | 79.8% | 81.6% | 84% | 93.6% | 84.5% | 91.1% | 80.6% | 82.9% | 86.3% | 85.7%
2 | COC(=O)Nc1nc2cc(Sc3ccccc3)ccc2[nH]1 | 124% | 115% | 119% | 108% | 112% | 114% | 111% | 96% | 19.5% | 25.2% | 31.8% | 112% | 113% | 118% | 111% | 113% | 124% | 115% | 97.6% | 16.8% | 29.3% | 28.7% | 101% | 109% | 120% | 114% | 113% | 111% | 102% | 90% | 24.5% | 30.4% | 35.5%
3 | CN1\C(=C(O)/C2=C(C=C(Cl)S2)[S+]1([O-])=O)C(=O)NC3=NC=CC=C3 | 125% | 123% | 118% | 107% | 122% | 119% | 113% | 112% | 110% | 104% | 100% | 124% | 125% | 118% | 116% | 128% | 114% | 121% | 128% | 123% | 118% | 106% | 121% | 119% | 125% | 115% | 114% | 118% | 121% | 117% | 104% | 98.1% | 96.2%
4 | OC[C@H]1O[C@H](C[C@@H]1O)N2\C=C(\I)C(=O)NC2=O | 113% | 114% | 120% | 118% | 115% | 124% | 119% | 115% | 98.2% | 64.4% | 58.3% | 110% | 114% | 124% | 121% | 129% | 128% | 132% | 123% | 115% | 106% | 96.7% | 118% | 114% | 108% | 119% | 114% | 131% | 127% | 115% | 114% | 114% | 110%
5 | CN(C)[C@H]\1[C@@H]2[C@@H](O)[C@H]3\C(=C(O)/[C@]2(O)C(=O)\C(=C1O)C(N)=O)C(=O)C4=C(C=CC=C4O)[C@@]3(C)O |  |  |  |  |  |  |  |  |  |  |  | 130% | 123% | 125% | 127% | 127% | 131% | 130% | 106% | 96.1% | 128% | 116% |  |  |  |  |  |  |  |  |  |  | 
6 | N#C[C@@H]1C[C@@H]2C[C@@H]2N1C(=O)[C@@H](N)C12CC3CC(CC(O)(C3)C1)C2 | 121% | 123% | 115% | 122% | 122% | 114% | 122% | 110% | 109% | 110% | 108% | 132% | 123% | 120% | 120% | 116% | 123% | 128% | 107% | 111% | 110% | 97.6% | 122% | 128% | 121% | 118% | 124% | 114% | 121% | 123% | 112% | 111% | 108%
7 | O=C(O)c1nn(Cc2ccc(Cl)cc2Cl)c2ccccc12 | 94.1% | 93% | 97.1% | 92.5% | 89.5% | 84% | 81.1% | 88.9% | 89.6% | 79.2% | 87.1% | 87.5% | 86.6% | 95.3% | 85.2% | 86.1% | 85.7% | 84.3% | 82.2% | 89.5% | 85.2% | 84.2% | 87.6% | 79.1% | 89.1% | 86.4% | 81.3% | 74% | 73.9% | 74.4% | 81.5% | 71.7% | 76.9%
8 | CNC(=O)c1ccccc1Sc1ccc2c(/C=C/c3ccccn3)n[nH]c2c1 | 116% | 111% | 107% | 115% | 112% | 109% | 106% | 84.5% | 77.8% | 17.9% | 14% | 117% | 116% | 126% | 116% | 110% | 97.2% | 108% | 87% | 78.9% | 28% | 21.6% |  |  |  |  |  |  |  |  |  |  | 
9 | COC1=CC=CC(=C1/C2=N/CC3=C(N=C(NC4=CC(=C(C=C4)C(O)=O)OC)N=C3)C5=CC=C(Cl)C=C25)F | 82.2% | 87.8% | 82.3% | 87.8% | 56% | 16.6% | 13.5% | 12% | 13.9% | 18.2% | 20.5% | 93.8% | 81.6% | 77.9% | 83% | 49% | 22.4% | 16% | 16% | 15.8% | 22.1% | 28.5% | 81% | 80.3% | 77.8% | 77.7% | 49.6% | 30% | 24.2% | 23% | 27.2% | 29.7% | 35.4%
